In patent US12291518B2, “Thyroid hormone receptor agonists and use thereof” (Eccogene Inc., priority 2020, dated 2025):
Read-outs that look alike come from different tables or passages of the source.

Tests used:
[1] = molecular target: T1, THR alpha-LBD (Homo sapiens, UniProt P10827); assay: THR-α Coactivator Peptide Recruitment Assay (LanthaScreen TR-FRET); assay type: biochemical
T1 construct: except that THR alpha-LBD of a final concentration 0.25 nM was used; purchased Invitrogen PV4687
Experimental: (§1) A time-resolved FRET (TR-FRET) assay was used to test representative compounds of the application.
(§2) THR-β Coactivator Peptide Recruitment Assay were conducted by using Invitrogen's LanthaScreen™ TR-FRET Thyroid Receptor beta Assay Kit (Catalog no. PV4686). Binding of an agonist to the nuclear receptor causes a subsequent binding of a coactivator peptide, resulting in fluorescence energy transfer from the labelled nuclear receptor to the proximal coactivator peptide, which reflects the binding affinity of the agonist and the nuclear receptor. The assay was conducted by following the manufacturer's instructions. Briefly, THR beta-LBD (the final concentration is 0.5 nM) was added to the 384-well assay plate containing test compounds, followed by addition of Fluorescein-SRC2-2 coactivator peptide and terbium (Tb)-labeled anti-GST antibody. The final concentration of THR beta-LBD, Fluorescein-SRC2-2 coactivator peptide and terbium (Tb)-labeled anti-GST antibody is 0.5 nM, 0.1 nM and 2 nM, respectively. After a gentle mix and incubation at room temperature for 2 h, the signal was read on the EnVision Multilabel Plate Reader at wavelengths of 520 nm and 495 nm. TR-FRET ratio was calculated by dividing the emission signal at 520 nm and the emission signal at 495 nm, and then was plotted against a sigmoidal dose response curve (four parameters, GraphPad™ Prism 8) to determine the EC50 value.
THR-α Coactivator Peptide Recruitment Assay were conducted by using Invitrogen's LanthaScreen™ TR-FRET Thyroid Receptor alpha Assay Kit (Catalog no. PV4687), following the same method described above except that THR alpha-LBD of a final concentration 0.25 nM was used.

[2] = molecular target: T2, THR beta-LBD (Homo sapiens, UniProt P10828); assay: THR-β Coactivator Peptide Recruitment Assay (LanthaScreen TR-FRET); assay type: biochemical
T2 construct: THR beta-LBD (the final concentration is 0.5 nM) was added to the 384-well assay plate; purchased Invitrogen PV4686
T2 sequence (P10828 217-461 limits assumed): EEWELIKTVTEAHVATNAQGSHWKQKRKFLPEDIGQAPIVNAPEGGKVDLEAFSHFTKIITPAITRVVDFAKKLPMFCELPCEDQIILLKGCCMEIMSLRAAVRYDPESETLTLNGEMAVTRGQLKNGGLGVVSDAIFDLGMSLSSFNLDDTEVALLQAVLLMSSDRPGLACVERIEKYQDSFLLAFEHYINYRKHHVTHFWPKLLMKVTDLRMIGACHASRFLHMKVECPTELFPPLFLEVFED
Experimental: as §1, §2

[3] = TR-FRET coactivator recruitment, THR alpha-LBD 0.25 nM
[4] = TR-FRET coactivator recruitment, THR alpha-LBD 0.25 nM, read-out: THRα EC50
[5] = TR-FRET coactivator recruitment, THR beta-LBD 0.5 nM
[6] = TR-FRET coactivator recruitment, THR beta-LBD 0.5 nM, read-out: THRβ EC50

T1 sequence (P10827 163-410 isoform P10827-2 limits assumed, other chains not shown): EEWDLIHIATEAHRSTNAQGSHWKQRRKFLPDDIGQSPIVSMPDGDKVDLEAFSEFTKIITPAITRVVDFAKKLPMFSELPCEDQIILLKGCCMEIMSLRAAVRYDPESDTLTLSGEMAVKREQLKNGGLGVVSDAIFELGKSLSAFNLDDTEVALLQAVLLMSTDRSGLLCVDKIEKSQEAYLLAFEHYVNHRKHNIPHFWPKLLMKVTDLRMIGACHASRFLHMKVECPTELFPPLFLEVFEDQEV

Compound | THRα Emax [1, 3] | EC50 [1, 4] [nM] | THRβ Emax [2, 5] | EC50 [2, 6] [nM] | EC50 [1] [nM] | EC50 [2] [nM]
NC(=O)C1(NS(=O)(=O)c2cc(Oc3c(Cl)cc(-n4nc(C(F)F)c(=O)[nH]c4=O)cc3Cl)ccc2O)CC1 [Compound 24, 1-[[5-[2,6-dichloro-4-[6-(difluoromethyl)-3,5-dioxo-1,2,4-triazin-2-yl]phenoxy]-2-hydroxy-phenyl]sulfonylamino]cyclopropanecarboxamide] | A (85~110) | 2 to 200 | A (90~110) | < 2 | – | –
CNC(=O)C1(N[S@SP3](=O)(=O)c2cc(Oc3c(Cl)cc(-n4nc(C(F)(F)F)c(=O)[nH]c4=O)cc3Cl)ccc2O)CC1 [Compound 25, 1-((5-(2,6-dichloro-4-(3,5-dioxo-6-(trifluoromethyl)-4,5-dihydro-1,2,4-triazin-2(3H)-yl)phenoxy)-2-hydroxyphenyl)sulfonamido)-N-methylcyclopropane-1-carboxamide] | C (<40) | > 1000 | B (75~90) | 20 to 100 | – | –
N#CC1CC(N[S@SP3](=O)(=O)c2cc(Oc3c(Cl)cc(-n4nc(C(F)F)c(=O)[nH]c4=O)cc3Cl)ccc2O)C1 (centres unmarked) [Compound 26, N-(3-cyanocyclobutyl)-5-[2,6-dichloro-4-[6-(difluoromethyl)-3,5-dioxo-1,2,4-triazin-2-yl]phenoxy]-2-hydroxy-benzenesulfonamide] | A (85~110) | – | A (90~110) | – | 2 to 200 | < 2
O=c1[nH]c(=O)n(-c2cc(Cl)c(Oc3ccc(O)c(S(=O)(=O)N4CCC(F)(F)CC4)c3)c(Cl)c2)nc1C(F)F [Compound 27, 2-[3,5-dichloro-4-[3-[(4,4-difluoro-1-piperidyl)sulfonyl]-4-hydroxy-phenoxy]phenyl]-6-(difluoromethyl)-1,2,4-triazine-3,5-dione] | A (85~110) | < 2 | B (75~90) | < 2 | – | –
O=c1[nH]c(=O)n(-c2cc(Cl)c(Oc3ccc(O)c(S(=O)(=O)N4CCC4)c3)c(Cl)c2)nc1C(F)F [Compound 28, 2-(4-(3-(azetidin-1-ylsulfonyl)-4-hydroxyphenoxy)-3,5-dichlorophenyl)-6-(difluoromethyl)-1,2,4-triazine-3,5(2H,4H)-dione] | A (85~110) | < 2 | B (75~90) | < 2 | – | –
O=c1[nH]c(=O)n(-c2cc(Cl)c(Oc3ccc(O)c(S(=O)(=O)N[C@H]4CCOC4)c3)c(Cl)c2)nc1C(F)F [Compound 29, (S)-5-(2,6-dichloro-4-(6-(difluoromethyl)-3,5-dioxo-4,5-dihydro-1,2,4-triazin-2(3H)-yl)phenoxy)-2-hydroxy-N-(tetrahydrofuran-3-yl)benzenesulfonamide] | A (85~110) | 2 to 200 | A (90~110) | < 2 | – | –
O=c1[nH]c(=O)n(-c2cc(Cl)c(Oc3ccc(O)c(S(=O)(=O)N[C@@H]4CCOC4)c3)c(Cl)c2)nc1C(F)F [Compound 30, (R)-5-(2,6-dichloro-4-(6-(difluoromethyl)-3,5-dioxo-4,5-dihydro-1,2,4-triazin-2(3H)-yl)phenoxy)-2-hydroxy-N-(tetrahydrofuran-3-yl)benzenesulfonamide] | A (85~110) | < 2 | A (90~110) | < 2 | – | –
O=c1[nH]c(=O)n(-c2cc(Cl)c(Oc3ccc(O)c(S(=O)(=O)N4CCNCC4)c3)c(Cl)c2)nc1C(F)F [Compound 31, 2-(3,5-dichloro-4-(4-hydroxy-3-(piperazin-1-ylsulfonyl)phenoxy)phenyl)-6-(difluoromethyl)-1,2,4-triazine-3,5(2H,4H)-dione] | B (40~85) | 2 to 200 | C (<75) | 2 to 20 | – | –
O=C(C1CC1)N1CCN(S(=O)(=O)c2cc(Oc3c(Cl)cc(-n4nc(C(F)F)c(=O)[nH]c4=O)cc3Cl)ccc2O)CC1 [Compound 32, 2-(3,5-dichloro-4-(3-((4-(cyclopropanecarbonyl)piperazin-1-yl)sulfonyl)-4-hydroxyphenoxy)phenyl)-6-(difluoromethyl)-1,2,4-triazine-3,5(2H,4H)-dione] | C (<40) | 2 to 200 | C (<75) | 2 to 20 | – | –
CN1CCN(S(=O)(=O)c2cc(Oc3c(Cl)cc(-n4nc(C(F)F)c(=O)[nH]c4=O)cc3Cl)ccc2O)CC1=O [Compound 33, 2-(3,5-dichloro-4-(4-hydroxy-3-((4-methyl-3-oxopiperazin-1-yl)sulfonyl)phenoxy)phenyl)-6-(difluoromethyl)-1,2,4-triazine-3,5(2H,4H)-dione] | B (40~85) | 2 to 200 | C (<75) | < 2 | – | –
CO[C@H]1C[C@H](NS(=O)(=O)c2cc(Oc3c(Cl)cc(-n4nc(C(F)F)c(=O)[nH]c4=O)cc3Cl)ccc2O)C1 [Compound 36, 5-(2,6-dichloro-4-(6-(difluoromethyl)-3,5-dioxo-4,5-dihydro-1,2,4-triazin-2(3H)-yl)phenoxy)-2-hydroxy-N-((1r,3r)-3-methoxycyclobutyl)benzenesulfonamide] | B (40~85) | 2 to 200 | B (75~90) | 2 to 20 | – | –
CO[C@H]1C[C@@H](NS(=O)(=O)c2cc(Oc3c(Cl)cc(-n4nc(C(F)F)c(=O)[nH]c4=O)cc3Cl)ccc2O)C1 [Compound 37, 5-(2,6-dichloro-4-(6-(difluoromethyl)-3,5-dioxo-4,5-dihydro-1,2,4-triazin-2(3H)-yl)phenoxy)-2-hydroxy-N-((1s,3s)-3-methoxycyclobutyl)benzenesulfonamide] | A (85~110) | 2 to 200 | B (75~90) | 2 to 20 | – | –
O=C(N1CCC1)C1(NS(=O)(=O)c2cc(Oc3c(Cl)cc(-n4nc(C(F)F)c(=O)[nH]c4=O)cc3Cl)ccc2O)CC1 [Compound 38, N-(1-(azetidine-1-carbonyl)cyclopropyl)-5-(2,6-dichloro-4-(6-(difluoromethyl)-3,5-dioxo-4,5-dihydro-1,2,4-triazin-2(3H)-yl)phenoxy)-2-hydroxybenzenesulfonamide] | A (85~110) | 2 to 200 | B (75~90) | 2 to 20 | – | –
CS(=O)(=O)[C@H]1CCN(S(=O)(=O)c2cc(Oc3c(Cl)cc(-n4nc(C(F)F)c(=O)[nH]c4=O)cc3Cl)ccc2O)C1 [Compound 39, (S)-2-(3,5-dichloro-4-(4-hydroxy-3-((3-(methylsulfonyl)pyrrolidin-1-yl)sulfonyl)phenoxy)phenyl)-6-(difluoromethyl)-1,2,4-triazine-3,5(2H,4H)-dione] | B (40~85) | 2 to 200 | C (<75) | < 2 | – | –
O=c1[nH]c(=O)n(-c2cc(Cl)c(Oc3ccc(O)c(S(=O)(=O)N4CC(O)C4)c3)c(Cl)c2)nc1C(F)F [Compound 40, 2-[3,5-dichloro-4-[4-hydroxy-3-(3-hydroxyazetidin-1-yl)sulfonyl-phenoxy]phenyl]-6-(difluoromethyl)-1,2,4-triazine-3,5-dione] | A (85~110) | 2 to 200 | B (75~90) | < 2 | – | –
C[C@@H](CO)NS(=O)(=O)c1cc(Oc2c(Cl)cc(-n3nc(C(F)F)c(=O)[nH]c3=O)cc2Cl)ccc1O [Compound 41, (S)-5-(2,6-dichloro-4-(6-(difluoromethyl)-3,5-dioxo-4,5-dihydro-1,2,4-triazin-2(3H)-yl)phenoxy)-2-hydroxy-N-(1-hydroxypropan-2-yl)benzenesulfonamide] | A (85~110) | 2 to 200 | B (75~90) | < 2 | – | –
O=c1[nH]c(=O)n(-c2cc(Cl)c(Oc3ccc(O)c(S(=O)(=O)NC[C@H]4C[C@H](O)C4)c3)c(Cl)c2)nc1C(F)F [Compound 43, 5-(2,6-dichloro-4-(6-(difluoromethyl)-3,5-dioxo-4,5-dihydro-1,2,4-triazin-2(3H)-yl)phenoxy)-2-hydroxy-N-(((1r,3r)-3-hydroxycyclobutyl)methyl)benzenesulfonamide] | A (85~110) | 2 to 200 | A (90~110) | 2 to 20 | – | –
